Measurements from paper PMC7497403, “Development of Potent PfCLK3 Inhibitors Based on TCMDC-135051 as a New Class of Antimalarials” (Journal of Medicinal Chemistry, 2020).

Legend:
[1] = Microsomal stability; format: in vitro ADME; conditions: mouse liver microsomes; 1 μM compound
Protocol: Compounds were incubated at 37 °C at a concentration of 1 μM with CD1 mouse liver microsomes (GIBCO, Thermo Fisher Scientific) in a suspension of 50 mM potassium phosphate buffer (pH 7.4) with a final protein concentration of 0.5 mg/mL. The reaction was started by the addition of excess NADPH and then quenched at several time points starting from time 0, then at 3, 6, 9, 15, and 30 min addition of acetonitrile to an aliquot of the sample. An internal standard was added to each sample before centrifugation to remove any precipitates before monitoring loss of parent compound by HPLC analysis using Shimadzu LC-20A (Shimadzu, UK). Prism (Graphpad, USA) was used to fit an exponential decay for substrate depletion and subsequently rate constant (k) from the peak area of the parent compound to the internal standard at each time point.

[2] = test system: P. falciparum 3D7; test: Parasite growth inhibition (Sybr Green I) in 3D7 parasites; format: cell-based; conditions: for fold decrease in parasite growth inhibition: 3D7 parasites, relative to TCMDC-135051 (1); for 3D7 ED50: Table 2, asexual 3D7 P. falciparum; for EC50: Plasmodium falciparum, asexual 3D7 (chloroquine-sensitive) P. falciparum, ± SEM, n = 3, read-out: 3D7 pEC50 (converted)
[3] = biological target: T1, full-length PfCLK3 recombinant protein (Plasmodium falciparum, UniProt Q8IIL5); test: TR-FRET PfCLK3 in vitro kinase assay; format: biochemical, P. falciparum; conditions: for IC50: TR-FRET, full-length recombinant PfCLK3, ± SEM, n = 3, read-out: PfCLK3 pIC50 (converted)
T1 sequence (Q8IIL5 1-699): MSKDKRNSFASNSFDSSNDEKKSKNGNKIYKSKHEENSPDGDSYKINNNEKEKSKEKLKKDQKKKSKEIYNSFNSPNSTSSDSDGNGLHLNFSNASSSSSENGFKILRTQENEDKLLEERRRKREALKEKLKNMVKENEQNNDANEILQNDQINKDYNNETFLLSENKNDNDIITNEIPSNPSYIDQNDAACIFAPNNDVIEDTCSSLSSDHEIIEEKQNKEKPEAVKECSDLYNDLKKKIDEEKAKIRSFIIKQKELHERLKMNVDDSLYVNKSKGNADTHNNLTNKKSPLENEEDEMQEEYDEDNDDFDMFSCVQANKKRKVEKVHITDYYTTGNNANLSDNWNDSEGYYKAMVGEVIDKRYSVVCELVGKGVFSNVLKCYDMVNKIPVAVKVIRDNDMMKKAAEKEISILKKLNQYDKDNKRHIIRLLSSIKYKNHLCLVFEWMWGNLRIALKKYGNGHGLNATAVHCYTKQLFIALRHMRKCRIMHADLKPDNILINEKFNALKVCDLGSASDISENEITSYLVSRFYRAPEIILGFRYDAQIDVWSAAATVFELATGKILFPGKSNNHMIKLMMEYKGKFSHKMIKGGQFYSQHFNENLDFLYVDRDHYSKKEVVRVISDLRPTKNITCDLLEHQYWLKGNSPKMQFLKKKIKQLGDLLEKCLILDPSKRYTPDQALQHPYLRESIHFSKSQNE
Protocol: First, in a 10 μL reaction volume, 5 μL of twice the required enzyme concentration (50 nM) and 2.5 μL of four times the required substrate concentration mix containing cold ATP, and the serially diluted drugs were mixed in a black 384-plate well plate and incubated at 37 °C for 1 h. The reaction was stopped after incubation by adding the stopping/detection solution (containing 30 mM EDTA in 1× Lance detection buffer and 3 nM Europium-labeled antiphospho-specific antibody) and incubated for another hour at RT before phosphorylation signals were measured using the ClarioStar.
For each test compound, percent inhibition (response) which was calculated using the formula: [drawing 3] was plotted against the log molar concentration of compound to calculate the IC50 (potency) of each inhibitor molecule and plotted using GraphPad prism software. All experiments were carried out in triplicates, and the data presented were the standard error of the mean (SEM) of three independent experiments run in triplicates.
PfCLK3 phosphorylation of substrate results in the Europium-labeled antiphospho-specific antibody recognizing the phosphorylated site on the substrate. The Europium donor fluorophore is excited at 320 or 340 nm, and energy is transferred to the ULight acceptor dye on the substrate, which finally results in the emission of light at 665 nm. The level of ULight peptide phosphorylation correlates with the intensity of the emission. For normalization, a no kinase and a no inhibitor reaction wells were included, and all experiments were conducted in triplicates. Drug dilutions, protein concentrations, and incubation times were the same for easy comparison of results.

[4] = test system: P. falciparum clinical field isolates from The Gambia; test: Parasite reduction rate (PRR) assay with clinical isolates; format: cell-based; conditions: all isolates except GB0020, GB002 and GB0026; at EC50 concentration (18 nM)

Row | SMILES | clint (in vitro intrinsic clearance) [1] [mL/min/g liver] | fold decrease in parasite growth inhibition [2] [fold] | IC50 [3] [nM] | other results
1 | CCN(CC)Cc1ccc(OC)c(-c2cc3c(-c4ccc(-c5nnn[nH]5)c(C(C)C)c4)ccnc3[nH]2)c1 [analogue 30, N-Ethyl-N-(3-(4-(3-isopropyl-4-(1H-tetrazol-5-yl)phenyl)-1H-pyrrolo[2,3-b]pyridin-2-yl)-4-methoxybenzyl)ethanamine] | 2.32 | – | – | –
2 | CCN(CC)Cc1ccc(OC)c(-c2cc3c(-c4ccc(C(=O)O)c(C)c4)ccnc3[nH]2)c1 [analogue 28, 4-(2-(5-((Diethylamino)methyl)-2-methoxyphenyl)-1H-pyrrolo[2,3-b]pyridin-4-yl)-2-methylbenzoic Acid] | 1.33 | 6 | – | 3D7 ED50 [2]: 1185 nM
3 | CCN(CC)Cc1cccc(-c2cc3c(-c4ccc(C(=O)O)c(C(C)C)c4)ccnc3[nH]2)c1OC [analogue 27, 4-(2-(3-((Diethylamino)methyl)-2-methoxyphenyl)-1H-pyrrolo[2,3-b]pyridin-4-yl)-2-isopropylbenzoic Acid] | 1.65 | 15 | 20 | fold increase in in vitro kinase activity (PfCLK3) ([3]; relative to TCMDC-135051 (1)): 2 fold
4 | COc1ccccc1-c1cc2c(-c3ccc(C(=O)O)c(C(C)C)c3)ccnc2[nH]1 [analogue 15, 4-[2-(2-Methoxyphenyl)-1H-pyrrolo[2,3-b]pyridin-4-yl]-2-(propan-2-yl)benzoic Acid] | 2.54 | 7 | – | –
5 | CCN(CC)Cc1cccc(-c2cc3c(-c4ccc(C(=O)O)c(C(C)C)c4)ccnc3[nH]2)c1 [analogue 23, 4-(2-{3-[(Diethylamino)methyl]phenyl}-1H-pyrrolo[2,3-b]pyridin-4-yl)-2-(propan-2-yl)benzoic Acid] | 0.85 | 1.5 | – | –
6 | COc1ccc(CN)cc1-c1cc2c(-c3ccc(C(=O)O)c(C(C)C)c3)ccnc2[nH]1 [analogue 12, 4-{2-[5-(Aminomethyl)-2-methoxyphenyl]-1H-pyrrolo[2,3-b]pyridin-4-yl}-2-(propan-2-yl)benzoic Acid] | 2.92 | – | – | fold less potent in vitro (PfCLK3) ([3]; relative to TCMDC-135051 (1)): 2 fold
7 | COc1ccc(CN2CCOCC2)cc1-c1cc2c(-c3ccc(C(=O)O)c(C(C)C)c3)ccnc2[nH]1 [analogue 8c, 4-(2-{2-Methoxy-5-[(morpholin-4-yl)methyl]phenyl}-1H-pyrrolo[2,3-b]pyridin-4-yl)-2-(propan-2-yl)benzoic Acid] | 1.60 | – | 10 | –
8 | CCOC(=O)c1ccc(-c2ccnc3[nH]c(-c4cc(CN(CC)CC)ccc4OC)cc23)cc1C(C)C [analogue 9, Ethyl 4-(2-(5-((Diethylamino)methyl)-2-methoxyphenyl)-1H-pyrrolo[2,3-b]pyridin-4-yl)-2-isopropylbenzoate] | 16.06 | – | – | –
9 | CCN(CC)Cc1ccc(OC)c(-c2cc3c(-c4cccc(C(C)C)c4)ccnc3[nH]2)c1 [analogue 31, N-Ethyl-N-(3-(4-(3-isopropylphenyl)-1H-pyrrolo[2,3-b]pyridin-2-yl)-4-methoxybenzyl)ethanamine] | 9.54 | – | 1000 | –
10 | COc1ccc(CN2CCCC2)cc1-c1cc2c(-c3ccc(C(=O)O)c(C(C)C)c3)ccnc2[nH]1 [analogue 8b, 4-(2-{2-Methoxy-5-[(pyrrolidin-1-yl)methyl]phenyl}-1H-pyrrolo[2,3-b]pyridin-4-yl)-2-(propan-2-yl)benzoic Acid] | 1.94 | 2 | – | –
11 | COc1ccc(CN(C)C)cc1-c1cc2c(-c3ccc(C(=O)O)c(C(C)C)c3)ccnc2[nH]1 [analogue 8a, 4-(2-{5-[(Dimethylamino)methyl]-2-methoxyphenyl}-1H-pyrrolo[2,3-b]pyridin-4-yl)-2-(propan-2-yl)benzoic Acid] | 2.53 | 2 | 31.6 | EC50 [2]: 501 nM
12 | CCc1nc(N)nc(N)c1-c1ccc(Cl)cc1 [pyrimethamine, reference compound] | – | – | – | reduction in parasitemia (PRR) [4]: at least 70%
13 | CCN(CC)Cc1ccc(O)c(-c2cc3c(-c4ccc(C(=O)O)c(C(C)C)c4)ccnc3[nH]2)c1 [analogue 19, 4-(2-(5-((Diethylamino)methyl)-2-hydroxyphenyl)-1H-pyrrolo[2,3-b]pyridin-4-yl)-2-isopropylbenzoic Acid] | 1.94 | – | 20 | EC50 [2]: 3160 nM
14 | CCN(CC)Cc1ccc(OC)c(-c2cc3c(-c4ccc(C(=O)O)cc4)ccnc3[nH]2)c1 [analogue 29, 4-(2-(5-((Diethylamino)methyl)-2-methoxyphenyl)-1H-pyrrolo[2,3-b]pyridin-4-yl)benzoic Acid] | 11.01 | 16 | 31.6 | 3D7 ED50 [2]: 3272 nM
